Laboratory results taken from ChEMBL document CHEMBL5042530, “Discovery of Novel Pyridine-Dimethyl-Phenyl-DAPY Hybrids by Molecular Fusing of Methyl-Pyrimidine-DAPYs and Difluoro-Pyridinyl-DAPYs: Improving the Druggability toward High Inhibitory Activity, Solubility, Safety, and PK” (J Med Chem, 2022).

Experiments:
[1] = tested on: Human immunodeficiency virus 1; assay: Antiviral activity against HIV-1 harboring E138K mutant infected in human MT4 cells assessed as protection against virus-induced cytotoxicity incubated for 5 days by MTT assay; assay type: functional, organism-based; settings: Human immunodeficiency virus 1, MT4, 120 h
[2] = tested on: Human immunodeficiency virus 1; assay: Antiviral activity against HIV-1 harboring RES056 mutant infected in human MT4 cells assessed as protection against virus-induced cytotoxicity incubated for 5 days by MTT assay; assay type: functional, organism-based; settings: Human immunodeficiency virus 1, MT4, 120 h
[3] = tested on: Human immunodeficiency virus 1; assay: Antiviral activity against HIV-1 harboring RT L100I mutant infected in human MT4 cells assessed as protection against virus-induced cytotoxicity incubated for 5 days by MTT assay; assay type: functional, organism-based; settings: Human immunodeficiency virus 1, MT4, 120 h
[4] = Cytotoxicity against human MT4 cells assessed as reduction in cell viability measured after 5 days by MTT assay; assay type: toxicity, cell-based; settings: time 5 day
[5] = Selectivity index, ratio of CC50 for cytotoxicity against human MT4 cells to EC50 for antiviral activity against HIV-1 IIIB infected in human MT4 cells; assay type: toxicity, cell-based; settings: read-out: Ratio CC50/EC50
[6] = target: Human immunodeficiency virus type 1 reverse transcriptase (Human immunodeficiency virus 1, UniProt Q72547); assay: Inhibition of recombinant wild type p66/p51 HIV1 reverse transcriptase incubated for 40 mins by picogreen dye-based spectrofluorometric analysis
[7] = tested on: Human immunodeficiency virus 1; assay: Antiviral activity against wild type HIV-1 IIIB infected in human MT4 cells assessed as protection against virus-induced cytotoxicity incubated for 5 days by MTT assay; assay type: functional, organism-based; settings: Human immunodeficiency virus 1, IIIB, MT4, 120 h
[8] = tested on: Human immunodeficiency virus 1; assay: Antiviral activity against HIV-1 harboring Y181C mutant infected in human MT4 cells assessed as protection against virus-induced cytotoxicity incubated for 5 days by MTT assay; assay type: functional, organism-based; settings: Human immunodeficiency virus 1, MT4, 120 h
[9] = tested on: Human immunodeficiency virus 1; assay: Antiviral activity against HIV-1 harboring K103N mutant infected in human MT4 cells assessed as protection against virus-induced cytotoxicity incubated for 5 days by MTT assay; assay type: functional, organism-based; settings: Human immunodeficiency virus 1, MT4, 120 h
[10] = tested on: Human immunodeficiency virus 1; assay: Antiviral activity against HIV-1 harboring Y188L mutant infected in human MT4 cells assessed as protection against virus-induced cytotoxicity incubated for 5 days by MTT assay; assay type: functional, organism-based; settings: Human immunodeficiency virus 1, MT4, 120 h
[11] = tested on: Human immunodeficiency virus 1; assay: Antiviral activity against HIV-1 harboring F227L/V106A double mutant infected in human MT4 cells assessed as protection against virus-induced cytotoxicity incubated for 5 days by MTT assay; assay type: functional, organism-based; settings: Human immunodeficiency virus 1, MT4, 120 h

SMILES | EC50 [1] [nM] | EC50 [2] [nM] | EC50 [3] [nM] | CC50 at 120 h [4] [nM] | selectivity ratio [5] | IC50 [6] [nM] | EC50 [7] [nM] | EC50 [8] [nM] | EC50 [9] [nM] | EC50 [10] [nM] | EC50 [11] [nM]
Cc1ncc(-c2cc(C)c(Nc3ccnc(Nc4ccc(C#N)cc4)n3)c(C)c2)cn1 | 24 | 641 | 68 | 3900 | 2440 | 46.7 | 1.6 | 23 | 7.8 |  | 
Cc1cc(-c2cccc3cc[nH]c23)cc(C)c1Nc1ccnc(Nc2ccc(C#N)cc2)n1 | 124 |  |  | 1000 | 44 | 60.5 | 23 |  | 271 |  | 
Cc1cc(-c2ccnc3ccccc23)cc(C)c1Nc1ccnc(Nc2ccc(C#N)cc2)n1 | 36 | 274 | 75 | 3500 | 618 | 40.7 | 5.7 | 30 | 20 | 1340 | 1670
Cc1cnc(Nc2ccc(C#N)cc2)nc1Nc1c(F)cc(-c2ccco2)cc1F | 11.2 |  | 114 | 8100 | 1920 | 12 | 4.2 | 187 | 33 | 856 | 
Cc1cnc(Nc2ccc(C#N)cc2)nc1Nc1c(F)cc(-c2ccsc2)cc1F | 49.5 |  | 279 | 261000 | 36700 | 12 | 7.1 | 306 | 185 | 1290 | 
Cc1cc(-c2ccco2)cc(C)c1Nc1ccnc(Nc2ccc(C#N)cc2)n1 | 14 |  | 51 | 1700 | 335 | 38.1 | 5.1 | 28 | 10 | 150 | 
Cc1cnc(Nc2ccc(C#N)cc2)nc1Nc1c(F)cc(-c2cncc(C#N)c2)cc1F | 86 |  | 1880 | 50000 | 2080 | 271 | 24 | 1410 | 135 | > 2000 | 
Cc1cnc(Nc2ccc(C#N)cc2)nc1Nc1c(F)cc(-c2ccoc2)cc1F | 12.3 |  | 228 | 4200 | 742 | 8.4 | 5.7 | 150 | 48 | 1340 | 
Cc1cnc(Nc2ccc(C#N)cc2)nc1Nc1c(F)cc(-c2cncc(C(F)(F)F)c2)cc1F | 482 |  | > 2000 | 8200 | 41 | 857 | 201 | > 2000 | 631 | > 2000 | 
Cc1cnc(Nc2ccc(C#N)cc2)nc1Nc1c(F)cc(-c2cc(F)nc(F)c2)cc1F | 66 |  | 1730 | 103000 | 9570 | 55 | 11 | 285 | 117 | > 2000 | 
Cc1cc(-c2ccc3cc[nH]c3c2)cc(C)c1Nc1ccnc(Nc2ccc(C#N)cc2)n1 | 139 |  | 577 | 5800 | 275 | 53.4 | 21 | 497 | 209 |  | 
Cc1cc(-c2cc(C)c(Nc3ccnc(Nc4ccc(C#N)cc4)n3)c(C)c2)ccn1 | 11 | 225 | 44 | 4900 | 2880 | 35.7 | 1.7 | 17 | 5.9 | 229 | 562
Cc1cc(-c2cc(F)nc(F)c2)cc(C)c1Nc1ccnc(Nc2ccc(C#N)cc2)n1 | 45 | 620 | 91 | 6300 | 1740 | 45.6 | 3.6 | 47 | 13 |  | 859
Cc1csc(-c2cc(C)c(Nc3ccnc(Nc4ccc(C#N)cc4)n3)c(C)c2)c1 | 43 |  | 231 | 34000 | 3060 | 56 | 11 | 116 | 50 | 941 | 
Cc1ccc(-c2cc(C)c(Nc3ccnc(Nc4ccc(C#N)cc4)n3)c(C)c2)s1 | 47 |  | 249 | 28000 | 2570 | 43.8 | 11 | 179 | 57 | 1280 | 
Cc1cnc(Nc2ccc(C#N)cc2)nc1Nc1c(F)cc(-c2ccncc2)cc1F | 9.2 |  | 35 |  |  | 12 |  | 22 | 5.4 | 258 | 
Cc1cnc(Nc2ccc(C#N)cc2)nc1Nc1c(F)cc(-c2ccnc(F)c2)cc1F | 17.9 |  | 105 | 167000 | 45200 | 36 | 3.7 | 74.5 | 20.9 | > 2000 | 
Cc1cnc(Nc2ccc(C#N)cc2)nc1Nc1c(F)cc(-c2cncnc2)cc1F | 87 |  | > 916 | 900 | 59 | 280 | 16 | > 916 | 88 | > 916 | 
Cc1cc(-c2cccs2)cc(C)c1Nc1ccnc(Nc2ccc(C#N)cc2)n1 | 15 | 853 | 52 | 10000 | 2850 | 29 | 3.5 | 43 | 13 | 232 | 847
Cc1cc(-c2ccnc(C(F)(F)F)c2)cc(C)c1Nc1ccnc(Nc2ccc(C#N)cc2)n1 | 47 |  | 231 | 6100 | 923 | 68.5 | 6.6 | 128 | 37 |  | 
Cc1cc(-c2cncnc2)cc(C)c1Nc1ccnc(Nc2ccc(C#N)cc2)n1 | 36 | 588 | 113 | 6800 | 4020 | 343 | 1.7 | 48 | 10 |  | 
Cc1cnc(Nc2ccc(C#N)cc2)nc1Nc1c(F)cc(-c2ccc(C#N)nc2)cc1F | 8.5 |  | 52 | 62000 | 37500 | 22 | 1.6 | 35 | 11 | 2380 | 
Cc1cnc(Nc2ccc(C#N)cc2)nc1Nc1c(F)cc(-c2cccnc2)cc1F | 59 |  | > 1090 | 1100 | 80 | 197 | 14 | > 1090 | 111 | > 1090 | 
Cc1cc(-c2cc(C)c(Nc3ccnc(Nc4ccc(C#N)cc4)n3)c(C)c2)cc(C)n1 | 58 |  | 260 | 2300 | 375 | 66.7 | 6.2 | 85 | 33 | 1840 | 1720
Cc1cc(-c2cnc(C(F)(F)F)nc2)cc(C)c1Nc1ccnc(Nc2ccc(C#N)cc2)n1 | 37 | 429 | 98 | 4900 | 951 | 64 | 5.2 | 29.8 | 8.4 | 1260 | 
Cc1cc(-c2cc3ccccc3s2)cc(C)c1Nc1ccnc(Nc2ccc(C#N)cc2)n1 | 206 |  | 713 | 138000 | 3780 | 61.5 | 36 | 431 | 170 | 2820 | 206
Cc1cnc(Nc2ccc(C#N)cc2)nc1Nc1c(F)cc(-c2cccs2)cc1F | 12 |  | 176 | 8000 | 1330 | 12 | 6 | 241 | 51 | 980 | 
O=C1Nc2ccc(Cl)cc2[C@@](C#CC2CC2)(C(F)(F)F)O1 [EFAVIRENZ] |  | 560 | 10.7 | > 6330 |  |  |  |  |  |  | 410
Cc1cc(C#N)cc(C)c1Oc1nc(Nc2ccc(C#N)cc2)nc(N)c1Br [ETRAVIRINE] |  | 101 | 44.7 | > 4600 |  |  |  |  |  |  | 31
Cc1ccnc2c1NC(=O)c1cccnc1N2C1CC1 [NEVIRAPINE] |  |  |  | > 15000 |  |  |  |  |  | > 2000 | 
